Values quoted from earlier work, collected in patent US20210087552A1, “Methods, Compositions, and Systems for Classification of Genetic Variants of Unknown Significance” (Laboratory Corporation of America Holdings, priority 2019, published 2021).

How the values were obtained:
[1] = test system: individual mutations in ABL1, ASXL1, BRAF, CDKN2A, CEBPA, CSF3R, DNMT3A, EZH2, FLT3, IDH1, IDH2, JAK2, KIT, KMT2A, KRAS, NF1, NPM1, NRAS, PDGFRA, PML PTPN11 …
[2] = test system: individual mutations in ABL1, ASXL1, BRAF, CSF3R, DNMT3A, EZH2, FLT3, IDH2, JAK2, KIT, KRAS, NF1, NRAS, PDGFRA, PML PTPN11, and TET2

For `Nc1ccn([C@@H]2O[C@H](CO)[C@@H](O)[C@@H]2O)c(=O)n1` [cytarabine], the “mutation associated with resistance to chemotherapeutic agent” value [1] is given as “resistance”.
In the case of `Cc1cn(-c2cc(NC(=O)c3ccc(C)c(Nc4nccc(-c5cccnc5)n4)c3)cc(C(F)(F)F)c2)cn1` [nilotinib], the “mutation associated with resistance to agent” value [2] is given as “resistance”.
In the case of `CC(C)(C)c1nc(-c2cccc(NS(=O)(=O)c3c(F)cccc3F)c2F)c(-c2ccnc(N)n2)s1` [dabrafenib], the “mutation associated with resistance to chemotherapeutic agent” value [1] is listed as “resistance”.
